Experimental data reported in patent publication US20020076443A1, “Multiple phase cross-linked compositions and uses thereof” (priority 2000, published 2002).

Legend:
[1] = cited from earlier work
Water solubility = format: physicochemical; settings: clinical grade dextran of about 70 kDa versus HSA

- water solubility, fold lower than HSA (Water solubility): > 10 fold
Substance: dextran
- water solubility [1]: about 30 mg/mL
